Experimental data as given in ChEMBL document CHEMBL6083201, “Identification of triazolyl KAT6 inhibitors via a templated fragment approach” (Bioorg Med Chem Lett, 2024).

Molecular target: Histone acetyltransferase KAT6A (Homo sapiens, UniProt Q92794)
Test: Inhibition of KAT6A (unknown origin)

Chain of Histone acetyltransferase KAT6A (Q92794 whole entry): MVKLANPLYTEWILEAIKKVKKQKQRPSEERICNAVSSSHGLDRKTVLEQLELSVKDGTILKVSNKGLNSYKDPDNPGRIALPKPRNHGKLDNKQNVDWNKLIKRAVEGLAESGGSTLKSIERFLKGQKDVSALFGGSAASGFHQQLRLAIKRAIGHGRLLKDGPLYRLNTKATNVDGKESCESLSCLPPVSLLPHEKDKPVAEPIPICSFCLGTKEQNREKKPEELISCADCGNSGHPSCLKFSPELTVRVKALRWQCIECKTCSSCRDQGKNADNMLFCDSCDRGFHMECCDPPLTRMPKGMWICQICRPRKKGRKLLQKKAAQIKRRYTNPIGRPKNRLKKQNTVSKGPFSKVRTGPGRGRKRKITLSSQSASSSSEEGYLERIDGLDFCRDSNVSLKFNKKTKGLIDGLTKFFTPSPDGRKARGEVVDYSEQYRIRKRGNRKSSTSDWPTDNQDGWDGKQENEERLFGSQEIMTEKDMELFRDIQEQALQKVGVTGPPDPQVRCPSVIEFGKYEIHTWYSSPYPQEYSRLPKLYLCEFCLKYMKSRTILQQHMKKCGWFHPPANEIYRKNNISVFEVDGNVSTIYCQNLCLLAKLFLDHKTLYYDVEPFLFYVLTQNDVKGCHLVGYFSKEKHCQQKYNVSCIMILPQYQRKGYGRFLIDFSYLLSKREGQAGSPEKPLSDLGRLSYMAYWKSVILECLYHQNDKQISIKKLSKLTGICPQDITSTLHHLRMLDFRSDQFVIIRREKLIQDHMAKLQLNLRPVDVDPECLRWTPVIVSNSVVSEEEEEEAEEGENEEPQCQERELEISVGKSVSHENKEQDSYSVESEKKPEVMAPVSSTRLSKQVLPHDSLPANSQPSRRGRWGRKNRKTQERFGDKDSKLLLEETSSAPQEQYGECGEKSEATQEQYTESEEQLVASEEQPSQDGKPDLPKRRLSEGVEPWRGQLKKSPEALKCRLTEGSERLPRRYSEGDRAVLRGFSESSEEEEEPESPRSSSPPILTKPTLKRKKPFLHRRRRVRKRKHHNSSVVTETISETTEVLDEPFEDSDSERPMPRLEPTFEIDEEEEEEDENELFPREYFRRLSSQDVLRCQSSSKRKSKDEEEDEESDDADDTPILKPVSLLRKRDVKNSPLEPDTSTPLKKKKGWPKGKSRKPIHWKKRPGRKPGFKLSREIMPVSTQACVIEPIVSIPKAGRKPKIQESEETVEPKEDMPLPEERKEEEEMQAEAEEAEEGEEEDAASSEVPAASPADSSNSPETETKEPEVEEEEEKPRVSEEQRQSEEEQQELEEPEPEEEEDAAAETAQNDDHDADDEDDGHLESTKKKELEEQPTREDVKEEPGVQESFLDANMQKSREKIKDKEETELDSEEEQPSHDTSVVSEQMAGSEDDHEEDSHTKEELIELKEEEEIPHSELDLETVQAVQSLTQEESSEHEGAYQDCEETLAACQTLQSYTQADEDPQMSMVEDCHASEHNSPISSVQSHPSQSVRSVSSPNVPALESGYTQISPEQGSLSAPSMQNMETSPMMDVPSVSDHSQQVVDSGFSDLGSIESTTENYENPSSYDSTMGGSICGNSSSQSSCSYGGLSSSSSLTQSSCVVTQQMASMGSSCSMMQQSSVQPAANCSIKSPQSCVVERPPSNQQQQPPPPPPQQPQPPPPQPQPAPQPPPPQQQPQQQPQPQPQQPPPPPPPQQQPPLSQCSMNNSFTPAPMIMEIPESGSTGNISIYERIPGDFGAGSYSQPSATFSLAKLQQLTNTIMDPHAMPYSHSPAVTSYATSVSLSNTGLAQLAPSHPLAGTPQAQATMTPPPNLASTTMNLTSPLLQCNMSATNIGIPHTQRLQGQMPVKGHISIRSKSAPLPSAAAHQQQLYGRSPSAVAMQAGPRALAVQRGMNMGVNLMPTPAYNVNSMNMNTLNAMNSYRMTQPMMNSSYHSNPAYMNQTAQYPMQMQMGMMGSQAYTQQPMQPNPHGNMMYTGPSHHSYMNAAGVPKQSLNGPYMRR

COc1ccc(C2=CCN(C)CC2)cc1-n1cc(NS(=O)(=O)c2ccccc2)nn1
IC50: > 100 µM
